These are literature values, as cited in patent publication US20050261210A1, “Nonsense suppressor agents in treatment of cutaneous and gastrointestinal disorders” (priority 2004, published 2005).

Entries after “also recorded” stand apart in the source; their conditions may differ. Where two headings read alike, the source gives them in different places.

Data set [1] concerns termination suppression (readthrough). The conditions noted are these: for levels of termination suppression: in vitro assay, compared with tobramycin.
Data set [2] concerns CFTR. The following applies: transgenic mouse model of nonsense-mutated CFTR.
The test system of data set [3] is dystrophin. The following applies: cultured muscle cells from mdx mice.
Data set [4] has as its system CFTR. The following applies: cultured respiratory epithelial cells with CFTR nonsense mutations.
The test system of data set [5] is dystrophin. The following applies: Duchenne muscular dystrophy patients with nonsense mutations.
Data set [6] has as its system dystrophin. The conditions noted are these: mdx mice, systemic treatment.
The test system of data set [7] is CFTR. The conditions noted are these: cystic fibrosis patients with CFTR nonsense mutation, application to nasal mucosa.

As for `NCC[C@H](O)C(=O)N[C@@H]1C[C@H](N)[C@@H](O[C@H]2O[C@H](CN)[C@@H](O)[C@H](O)[C@H]2O)[C@H](O)[C@H]1O[C@H]1O[C@H](CO)[C@@H](O)[C@H](N)[C@H]1O` [amikacin], the level of read-through result in data set [1] (compared with gentamicin) is reported as “higher level of read-through than gentamicin in some contexts”. Moreover, the “levels of termination suppression” value in data set [1] is “higher than those provided by tobramycin”.
On to gentamicin, for which the “expression of functional CFTR protein” value in data set [2] and in data set [4] was “restore expression of functional CFTR protein” in each case. The dystrophin level result in data set [3] is “detectable levels of dystrophin”. The dystrophin expression result is “treatment-dependent expression of dystrophin in some patients; also recorded: lack of response in others” in data set [5] and “expression of the protein throughout the animal” in data set [6]. Besides, in data set [6] (versus untreated mdx mice), the muscle injury entry was “protection against the muscle injury”. Besides, in data set [7], the “functional CFTR protein” value is “restoration of functional CFTR protein”. The “levels of termination suppression” value in data set [1] is “higher than those provided by tobramycin”.
